According to patent US20230052528A1 (priority 2019, published 2023):
Where two headings read alike, the source gives them in different places.

Legend:
PC9 lung cancer cells = assay: Cell viability (CellTiter-Glo), PC9; format: cell-based
H522 lung cancer cells = assay: Cell viability, H522; format: cell-based; conditions: Homo sapiens
[1] = molecular target: T1, wildtype Taspase1 (split Tasp1 WT) (Homo sapiens, UniProt Q9H6P5); assay: biochemical
T1 sequence (Q9H6P5 1-233): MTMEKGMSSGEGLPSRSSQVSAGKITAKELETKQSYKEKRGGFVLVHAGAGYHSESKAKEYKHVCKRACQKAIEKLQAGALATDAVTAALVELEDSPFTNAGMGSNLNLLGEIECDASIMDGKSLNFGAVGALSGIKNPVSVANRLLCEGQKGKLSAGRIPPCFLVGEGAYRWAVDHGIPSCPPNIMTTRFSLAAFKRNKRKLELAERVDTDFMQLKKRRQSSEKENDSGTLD
T1 sequence (Q9H6P5 234-420): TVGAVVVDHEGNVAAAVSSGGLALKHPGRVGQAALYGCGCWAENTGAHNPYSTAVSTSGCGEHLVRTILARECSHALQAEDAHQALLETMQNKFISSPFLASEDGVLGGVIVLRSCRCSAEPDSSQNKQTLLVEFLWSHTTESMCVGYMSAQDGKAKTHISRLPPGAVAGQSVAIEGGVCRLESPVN
Description: (§1) FIGS. 4A-4B. […] “Taspase1 IC50 (FAM)”=inhibition of cleavage of a Taspase1 peptide substrate; detected by fluorescence resonance energy transfer (FRET). “6.6 mM GSH added”=same assay, in the presence of 6.6 mM glutathione (GSH). […] “Ki”=Ki determined by kinact/Ki measurements, using the Taspase1/FRET-peptide assay described above.
To extend that assay, compounds are also tested in the presence of 6.6 mM GSH as a non-specific, but physiologically relevant, thiol competitor.

[2] = tested on: MDA-MB-231 triple-negative breast cancer cells; assay: Cell viability, MDA-MB-231; format: cell-based; conditions: Homo sapiens
HSAEC 1-KT cells = assay: Cell viability, HSAEC 1-KT; format: cell-based; conditions: read-out: IC50 (μM) HSAEC 1-KT (Lung)
Taspase1 = molecular target: T2, Taspase1 (Homo sapiens, UniProt Q9H6P5); assay: biochemical
T2 sequence (Q9H6P5 1-233): T1 sequence (Q9H6P5 1-233)
T2 sequence (Q9H6P5 234-420): T1 sequence (Q9H6P5 234-420)
Description: as §1
Ki is the binding constant that describes the energy of association for the non-covalent portion of the molecule. Kinact is the rate at which the covalent bond is formed between the small molecule and the protein.

[3] = tested on: PC9, H1975, H522, HSAEC 1-KT, MDA-MB-231 and PC3 cell lines; assay: Cell viability, statements over all cell lines studied; format: cell-based; conditions: for EC50: read-out: EC50
PC3 prostate cells = assay: Cell viability, PC3; format: cell-based; conditions: read-out: IC50 (μM) PC3 (Prostate)
H1975 lung cancer cells = assay: Cell viability, H1975; format: cell-based; conditions: Homo sapiens
split Tasp1 WT = molecular target: T3, split Tasp1 WT (Homo sapiens, UniProt Q9H6P5); assay: LC-MS tethering dose-response (DR50) assay; format: binding; conditions: relative to the other shouldered piperazine analogs
T3 construct: residues 1-233 (alpha domain) in Multiple Cloning Site-1 (MCS-1); residues 234-420 (beta domain) in MCS-2; His6 (TEV-cleavable) (N, cleaved yes); made in house; host or cells: E. coli Rosetta2(DE3)
T3 sequence (Q9H6P5 1-233): T1 sequence (Q9H6P5 1-233)
T3 sequence (Q9H6P5 234-420): T1 sequence (Q9H6P5 234-420)

[4] = Stability of shouldered triazole compound (method not described)
[5] = Table 2a cytotoxicity, read-out: IC50 (μM) PC9 (Lung)
[6] = NCI-H522, Table 2a cytotoxicity, read-out: IC50 (μM) H522 (Lung)
[7] = Biochemical IC50 (nM) +6.6 mM GSH, Table 1, +6.6 mM GSH, 3FAM/QXL520 fluorescent dyes
[8] = Biochemical IC50 (nM) no GSH, Table 1, no GSH, 3FAM/QXL520 fluorescent dyes
[9] = WT IC50 (nM) 6.6 mM GSH, Table 1a, 6.6 mM GSH, average ± std dev
[10] = WT IC50 (nM) No GSH, Table 1a, no GSH, average ± std dev
[11] = MDA-MB-231, Table 2a cytotoxicity, read-out: IC50 (μM) MDA-MB-231 (Breast)
[12] = read-out: kinact (s^−1), Table 1
[13] = read-out: kinact (s^−1), Table 1a
[14] = NCI-H1975, read-out: IC50 (μM) H1975 (Lung), Table 2a cytotoxicity
[15] = MDA-MB-231, Table 2, read-out: MDA-MB-231 [Breast]
[16] = NCI-H1975, read-out: H1975 [Lung] (uM), Table 2

In the case of `C=CS(=O)(=O)N1CCN(Cc2ccc(OC(F)(F)F)c(F)c2)[C@@H](CCO)C1` [SMDC069, 2-[(2S)-4-(ethenesulfonyl)-1-{[3-fluoro-4-(trifluoromethoxy)phenyl]methyl}piperazin-2-yl]ethan-1-ol], the IC50 (PC9 lung cancer cells; 72 h, FIG. 3B, read-out: IC50, reduced viability of EGFR mutant PC9 lung cancer cells) is reported as ~2 µM, the IC50 (PC9 lung cancer cells; [5]) is reported as 3.9 ± 2.6 µM and the IC50 (H522 lung cancer cells; [6]) is reported as 2 µM. The IC50 [1, 7] was 273 nM, the IC50 [1, 8] was 17 nM and the IC50 ([1]; IC50 vs split Tasp1 WT) was ~20 nM. It also gave an IC50 [1, 9] of 273 ± 68 nM, an IC50 [1, 10] of 25 ± 16 nM and an IC50 [2, 11] of 6 ± 4.1 µM. It also gave an IC50 (HSAEC 1-KT cells; Table 2a cytotoxicity) of 3.2 µM, a Ki (Taspase1; Ki (uM), Table 1) of 23.2 µM and a Ki (Taspase1; Ki (μM), Table 1a) of 33 µM. For the same compound, the kinact (Taspase1; [12]) was 0.082 s⁻¹, the kinact (Taspase1; [13]) was 0.112 s⁻¹ and the EC50 [3] was 2 to 6 µM. For the same compound, the IC50 (PC3 prostate cells; Table 2a cytotoxicity) was 3.4 µM and the IC50 (H1975 lung cancer cells; [14]) was 3.6 ± 2.2 µM.

`C=CS(=O)(=O)N1CCN(Cc2ccc(OC(F)(F)F)c(F)c2)[C@@H](COCc2cn[nH]c2)C1` [SMDC203, (R)-2-(((1H-pyrazol-4-yl)methoxy)methyl)-1-(3-fluoro-4-(trifluoromethoxy)benzyl)-4-(vinylsulfonyl)piperazine] gave an IC50 (PC9 lung cancer cells; Table 2, read-out: PC9 [Lung]) of 10.5 µM, an IC50 (PC9 lung cancer cells; [5]) of 10.3 ± 0.3 µM and an IC50 [1, 7] of 237 nM. For the same compound, the IC50 [1, 8] was 22 nM, the IC50 ([1]; IC50 vs split Tasp1 WT) was ~20 nM and the IC50 [1, 9] was 237 ± 40 nM. The IC50 [1, 10] was 32 ± 18 nM, the IC50 [2, 15] was ~13 µM and the IC50 [2, 11] was 15.5 ± 2.5 µM. For the same compound, the Ki (Taspase1; Ki (uM), Table 1) was 27.7 µM, the Ki (Taspase1; Ki (μM), Table 1a) was 45 µM and the kinact (Taspase1; [12]) was 0.048 s⁻¹. The kinact (Taspase1; [13]) was 0.061 s⁻¹, the EC50 [3] was 9.6 to 15.5 µM and the IC50 (PC3 prostate cells; Table 2a cytotoxicity) was 15 µM. For the same compound, the IC50 (H1975 lung cancer cells; [16]) was 8.1 µM and the IC50 (H1975 lung cancer cells; [14]) was 9.6 ± 1.5 µM.

`CN(C)CCSSCCCC(=O)NCc1ccc(OC(F)(F)F)cc1` [SMDC208, 4-{[2-(dimethylamino)ethyl]disulfanyl}-N-{[4-(trifluoromethoxy)phenyl]methyl}butanamide] showed an IC50 ([1]; IC50 vs split Tasp1 WT) of 30300 nM.

With `C=CS(=O)(=O)N1CCN(Cc2ccc(OC(F)(F)F)c(F)c2)[C@@H](CN2CCS(=O)(=O)CC2)C1` [SMDC275, 4-{[(2S)-4-(ethenesulfonyl)-1-{[3-fluoro-4-(trifluoromethoxy)phenyl]methyl}piperazin-2-yl]methyl}-1λ^6-thiomorpholine-1,1-dione] the IC50 (PC9 lung cancer cells; Table 2, read-out: PC9 [Lung]) was 3.5 µM, the IC50 (PC9 lung cancer cells; [5]) was 3.5 µM and the “binding affinity in the tethering assay” value (split Tasp1 WT) was “enhanced binding affinity”. For the same compound, the IC50 [1, 7] was 420 nM, the IC50 [1, 8] was 27 nM and the IC50 ([1]; IC50 vs split Tasp1 WT) was ~20 nM. The IC50 [1, 9] was 420 ± 80 nM, the IC50 [1, 10] was 38 ± 16 nM and the IC50 [2, 15] was 4.3 µM. It also gave an IC50 [2, 11] of 4.3 µM, an IC50 (H1975 lung cancer cells; [16]) of 2.6 µM and an IC50 (H1975 lung cancer cells; [14]) of 2.6 µM.

In the case of `C=CS(=O)(=O)N1CCN(Cc2ccc(OC(F)(F)F)c(F)c2)[C@@H](COCc2c[nH]nn2)C1` [SMDC556, (R)-2-(((1H-1,2,3-triazol-4-yl)methoxy)methyl)-1-(3-fluoro-4-(trifluoromethoxy)benzyl)-4-(vinylsulfonyl)piperazine], the “stability” value [4] is reported as “too unstable”.

Work on `CN(C)CCSSCCCNC(=O)Cc1ccc(OC(F)(F)F)cc1` [SMDC673, N-(3-{[2-(Dimethylamino)ethyl]disulfanyl}propyl)-2-[4-(trifluoromethoxy)phenyl]acetamide] yielded an IC50 ([1]; IC50 vs split Tasp1 WT) of 11300 nM.

Compound `C=CS(=O)(=O)N1CCN(Cc2ccc(OC(F)(F)F)c(F)c2)CC1` [SMDC689, 1-(Ethenesulfonyl)-4-{[3-fluoro-4-(trifluoromethoxy)phenyl]methyl}piperazine] has an IC50 (PC9 lung cancer cells; [5]) of 11 ± 1 µM, an IC50 (H522 lung cancer cells; [6]) of 20 ± 10 µM and an IC50 [1, 7] of 661 nM. The IC50 [1, 8] was 51 nM, the IC50 ([1]; IC50 vs split Tasp1 WT) was 51 nM and the IC50 [1, 9] was 661 ± 152 nM. For the same compound, the IC50 [1, 10] was 51 ± 47 nM, the IC50 [2, 11] was 16.5 ± 1.5 µM and the IC50 (HSAEC 1-KT cells; Table 2a cytotoxicity) was 13 µM. It also gave a Ki (Taspase1; Ki (uM), Table 1) of 32.9 µM, a Ki (Taspase1; Ki (μM), Table 1a) of 45.8 ± 13.4 µM and a kinact (Taspase1; [12]) of 0.028 s⁻¹. For the same compound, the kinact (Taspase1; [13]) was 0.031 ± 0.003 s⁻¹, the IC50 (PC3 prostate cells; Table 2a cytotoxicity) was 15 µM and the IC50 (H1975 lung cancer cells; [14]) was 17.6 ± 8.3 µM.

`C=CS(=O)(=O)NCCCc1ccc(OC(F)(F)F)cc1` [SMDC714] showed an IC50 ([1]; IC50 vs split Tasp1 WT) of 16000 nM.

`C=CS(=O)(=O)N1CCN(Cc2cccc(OC(F)(F)F)c2)CC1` [SMDC723, 1-(3-(Trifluoromethoxy)benzyl)-4-(vinylsulfonyl)piperazine] gave an IC50 (PC9 lung cancer cells; Table 2, read-out: PC9 [Lung]) of ~22 µM, an IC50 (PC9 lung cancer cells; read-out: IC50 (μM) PC9 (Lung), Table 2a cytotoxicity) of 25.8 ± 2.7 µM and an IC50 (H522 lung cancer cells; NCI-H522, read-out: IC50 (μM) H522 (Lung)) of 24.4 ± 1.7 µM. The IC50 ([1]; IC50 vs split Tasp1 WT) was 40000 nM, the IC50 [2, 15] was ~37 µM and the IC50 ([2]; MDA-MB-231, read-out: IC50 (μM) MDA-MB-231 (Breast), Table 2a cytotoxicity) was 37 µM. For the same compound, the IC50 (HSAEC 1-KT cells) was ~32 µM, the IC50 ([3]; all cell lines studied, read-out: IC50 against cell lines studied) was > 20 µM and the IC50 (PC3 prostate cells) was ~28 µM. The IC50 (H1975 lung cancer cells; [16]) was ~20 µM and the IC50 (H1975 lung cancer cells; [14]) was 27.8 ± 5.6 µM.

In the case of `C#CCOC[C@H]1CN(S(=O)(=O)C=C)CCN1Cc1ccc(OC(F)(F)F)c(F)c1` [SMDC883, (2R)-4-(ethenesulfonyl)-1-{[3-fluoro-4-(trifluoromethoxy)phenyl]methyl}-2-[(prop-2-yn-1-yloxy)methyl]piperazine], the IC50 [1, 7] is reported as 340 nM, the IC50 [1, 8] is reported as 26 nM and the IC50 ([1]; IC50 vs split Tasp1 WT) is reported as ~20 nM. It also gave an IC50 [1, 9] of 340 ± 30 nM, an IC50 [1, 10] of 26 ± 8 nM and a Ki (Taspase1; Ki (uM), Table 1) of 64.3 µM. The Ki (Taspase1; Ki (μM), Table 1a) was 87 µM, the kinact (Taspase1; [12]) was 0.037 s⁻¹ and the kinact (Taspase1; [13]) was 0.045 s⁻¹.

With `C=CS(=O)(=O)N1CCN(Cc2ccc(OC(F)(F)F)cc2)CC1` [SMDC967, 1-(ethenesulfonyl)-4-{[4-(trifluoromethoxy)phenyl]methyl}piperazine] the IC50 [1, 8] was 168 nM, the IC50 ([1]; IC50 vs split Tasp1 WT) was 114 nM and the IC50 [1, 10] was 168 ± 54 nM. The Ki (Taspase1; Ki (uM), Table 1) was 6.02 µM, the Ki (Taspase1; Ki (μM), Table 1a) was 30 µM and the kinact (Taspase1; [12]) was 0.011 s⁻¹. The kinact (Taspase1; [13]) was 0.004 s⁻¹.
